In patent US11464783B2, “Heterocyclic compounds” (Aligos Therapeutics, Inc., priority 2019, dated 2022):

System: HBV
Experiment: HBV-DNA Antiviral Assay Using HepG2.2.15 Cells
Type: cell-based
Conditions: Hepatitis B virus, HepG2.2.15, 168 h, extracellular HBV DNA by qPCR, day 7
Method: The following assay procedure describes the HBV antiviral assay. This assay uses HepG2.2.15 cells, which have been transfected with HBV genome, and extracellular HBV DNA quantification as endpoint. Cell viability is assessed in parallel by measuring the intracellular ATP content using the CellTiter-Glo® reagent from Promega.
On day 0, HepG2.2.15 cells were seeded in 96-well plates at a density of 6.0×10^4 cells/well (0.1 mL/well). The cells were incubated at 37° C. and 5% CO2.
On day 1, the test articles were diluted and added to cell culture wells (8 concentrations, 4-fold dilution, in duplicate). GLS4, Tenofovir and Sorafenib were used as reference compounds. 100 μL of culture medium containing the compounds was added to the plate, and the final total volume per well was 200 μL. The final concentration of DMSO in the culture medium was 0.5%. The plate map of compound treatment is shown below. The cells were cultured at 37° C. and 5% CO2 for 3 days.
On day 4, the plates were refreshed with culture media with compounds.
On day 7, cell viability was assessed using the CellTiter-Glo®, and the cell culture supernatants were collected for determination of HBV DNA by qPCR.
Extracellular DNA was isolated with QIAamp 96 DNA Blood Kit per the manufacturer's manual. HBV DNA was then quantified by qPCR with HBV specific primers and probes as specified in Table 1 using the FastStart Universal MasterMix from Roche on an ABI-7900HT. The PCR cycle program consisted of 95° C. for 10 min, followed by 40 cycles at 95° C. for 15 sec and 60° C. for 1 min.
A DNA standard was prepared by dilution of the pAAV2 HBV1.3 plasmid with concentrations ranging from 10 to 1×10^7 copies/uL and used to generate a standard curve by plotting Ct value vs. the concentration of the HBV plasmid DNA standard. The quantity of HBV DNA in each sample was determined by interpolating from the standard curve.
Cell viability was calculated as follows: % Cell viability=(luminescence value of test sample−average luminescence value of blank)/(average luminescence value of 0.5% DMSO control−average luminescence of blank)×100%. HBV DNA inhibition was calculated as follows: 100-(HBV DNA copy number of test sample−HBV DNA copy number of ETV)/HBV DNA copy number of 0.5% DMSO control−HBV DNA copy number of ETV)×100%. The CC50, EC50 and EC90 values were determined by dose-response curves fitted by GraphPad Prism using “log (agonist) vs. response-Variable slope”.

Q: `O=C(c1ccc(Br)c(Cl)c1)N1CCS(=O)(=O)C(c2cccs2)C1` (stereo not shown) [Compound 6a, (4-bromo-3-chloro-phenyl)-[1,1-dioxo-2-(2-thienyl)-1,4-thiazinan-4-yl]methanone] was tested. Which EC50 did it give?
A: ≤ 100 nM

Q: `O=C(c1ccc(Cl)cc1F)N1CCS(=O)(=O)C(c2cccs2)C1` (stereo not shown) [Compound 10a, (4-chloro-2-fluoro-phenyl)-[1,1-dioxo-2-(2-thienyl)-1,4-thiazinan-4-yl]methanone] was tested. Which EC50 did it give?
A: > 5000 nM

Q: Which EC50 does the source give for `O=C(c1ccc(Cl)cc1Cl)N1CCS(=O)(=O)C(c2cccs2)C1` (stereo not shown) [Compound 11a, (2,4-dichlorophenyl)-[1,1-dioxo-2-(2-thienyl)-1,4-thiazinan-4-yl]methanone] here?
A: 500 to 5000 nM

Q: How did the EC50 turn out when `O=C(c1cccc(Cl)c1F)N1CCS(=O)(=O)C(c2cccs2)C1` (stereo not shown) [Compound 14a, (3-chloro-2-fluoro-phenyl)-[1,1-dioxo-2-(2-thienyl)-1,4-thiazinan-4-yl]methanone] was run?
A: > 5000 nM

Q: `C[C@@H]1CS(=O)(=O)[C@@H](c2cccs2)CN1C(=O)Nc1ccc(F)c(Cl)c1` [Compound 22, (2R,5R)-N-(3-chloro-4-fluoro-phenyl)-5-methyl-1,1-dioxo-2-(2-thienyl)-1,4-thiazinane-4-carboxamide] was tested. Which EC50 did it give?
A: > 5000 nM

Q: How did the EC50 turn out when `C[C@H]1CS(=O)(=O)[C@H](c2cccs2)CN1C(=O)c1ccc(Br)c(Cl)c1` [Compound 24, (4-bromo-3-chloro-phenyl)-[(2S,5S)-5-methyl-1,1-dioxo-2-(2-thienyl)-1,4-thiazinan-4-yl]methanone] was run?
A: 100 to 500 nM

Same assay, conditions: extracellular HBV DNA by qPCR, day 7

Q: With `O=C(c1ccc(Cl)c(Cl)c1)N1CCS(=O)(=O)C(c2cccs2)C1` (single isomer, unassigned) [Compound 8a, (3,4-dichlorophenyl)-[1,1-dioxo-2-(2-thienyl)-1,4-thiazinan-4-yl]methanone] as the compound, how does the EC50 read?
A: 500 to 5000 nM

Q: With `O=C(c1ccc(Cl)c(Cl)c1)N1CCS(=O)(=O)C(c2cccs2)C1` (single isomer, unassigned) [Compound 8b, (3,4-dichlorophenyl)-[1,1-dioxo-2-(2-thienyl)-1,4-thiazinan-4-yl]methanone] as the compound, how does the EC50 read?
A: 100 to 500 nM

Q: How did the EC50 turn out when `Cc1cc(C(=O)N2CCS(=O)(=O)C(c3cccs3)C2)ccc1Cl` (single isomer, unassigned) [Compound 9a, (4-chloro-3-methyl-phenyl)-[1,1-dioxo-2-(2-thienyl)-1,4-thiazinan-4-yl]methanone] was run?
A: 500 to 5000 nM

Q: `Cc1cc(C(=O)N2CCS(=O)(=O)C(c3cccs3)C2)ccc1Cl` (single isomer, unassigned) [Compound 9b, (4-chloro-3-methyl-phenyl)-[1,1-dioxo-2-(2-thienyl)-1,4-thiazinan-4-yl]methanone] was tested. Which EC50 did it give?
A: 100 to 500 nM

Q: How did the EC50 turn out when `Cn1cnc(-c2ccc(C3CN(C(=O)c4ccc(Br)c(Cl)c4)CCS3(=O)=O)s2)c1` (single isomer, unassigned) [Compound 16a, (4-bromo-3-chloro-phenyl)-[2-[5-(1-methylimidazol-4-yl)-2-thienyl]-1,1-dioxo-1,4-thiazinan-4-yl]methanone] was run?
A: 100 to 500 nM

Q: `Cn1cnc(-c2ccc(C3CN(C(=O)c4ccc(Br)c(Cl)c4)CCS3(=O)=O)s2)c1` (single isomer, unassigned) [Compound 16b, (4-bromo-3-chloro-phenyl)-[2-[5-(1-methylimidazol-4-yl)-2-thienyl]-1,1-dioxo-1,4-thiazinan-4-yl]methanone] was tested. Which EC50 did it give?
A: 500 to 5000 nM

Q: For `O=C(c1ccc(Br)c(Cl)c1)N1CCS(=O)(=O)C(c2cccs2)C1` (stereo not shown) [Compound 6b, (4-bromo-3-chloro-phenyl)-[1,1-dioxo-2-(2-thienyl)-1,4-thiazinan-4-yl]methanone], which EC50 is on record?
A: 100 to 500 nM
